Test results taken from patent publication US20140066385A1, “METHOD FOR TREATING CANCER BY COMBINED USE OF DRUGS” (Astellas Pharma Inc., priority 2011, published 2014).

Legend:
[1] = system: renal ischemia/reperfusion injury; conditions: reported in Non-Patent Documents 3 and 4; cited from earlier work
[2] = system: chronic rejection, rat aorta transplantation; conditions: reported in Non-Patent Document 2; cited from earlier work
[3] = system: human gastric cancer (AZ-521); experiment: Example 5: FK330 with paclitaxel in AZ-521 tumor-bearing mice; type: in vivo, nude mice; conditions: for tumor volume on the last day of experiment: AZ-521, Day 46, mean±SEM
Procedure: Preparation of the test substances was carried out in the same manner as in Example 2.
Human gastric cancer-derived NCI-N87 (CRL-5822) was obtained from American Type Culture Collection (VA, USA), MKN-28 (JCRB0253) was obtained from Health Science Research Resources Bank (HSRRB), and AZ-521 (RCB2087) was obtained from Riken BRC. NCI-N87 and MKN-28 cells were cultured under the conditions of 37° C. and 5% CO2 by using RPMI1640 medium containing 10% heat-inactivated fetal bovine serum (FBS), and AZ-521 cells were cultured under the conditions of 37° C. and 5% CO2 by using DMEM medium containing 10% heat-inactivated FBS. The cells were harvested with trypsin and were suspended in PBS at 6×10^7 cells/mL, and the suspension was mixed with an equal amount of Matrigel (trade name) Basement Membrane Matrix (manufactured by Becton Dickinson Co., Bedford, Mass., USA).
Five-week old male nude mice (CAnN Cg-Foxn1nu/CrlCrlj(nu/nu)) were purchased from Charles River Laboratories Japan, Inc. (Japan, Kanagawa). The animals were raised under specific pathogen-free (SPF) conditions throughout the test period by feeding standard feedstuff and drinking water. The cultured cells were subcutaneously inoculated into the dorsal region of the nude mice at a concentration of 3×10^6 cells/0.1 mL/mouse. […]
Every 2 to 4 days, the body weight and the tumor diameters, determined by using a digital caliper, were measured. The tumor volume was calculated from the calculation formula for ellipsoid volume of (major axis×[minor axis]^2×0.52).
The results are expressed as the mean value (Mean)±standard error (SEM). Using the actual measured values of the tumor volume at each measurement time point, an unpaired statistical test (Student's t-test) of the difference between two groups was carried out between a single administration group and a combined use group. […]

[4] = molecular target: inducible nitric oxide synthase (inducible NOS, iNOS) (Homo sapiens, UniProt P35228); conditions: reported in Non-Patent Document 1; cited from earlier work
[5] = molecular target: T1, purified pig brain-derived tubulin (Sus scrofa, UniProt P02550+P02554); experiment: Example 7: fluorescence-based assay of tubulin polymerization reaction; type: biochemical; conditions: paclitaxel final concentration 3 μmmol/L; 60 minutes after initiation; P<0.05
T1 construct: purified pig brain-derived tubulin (final concentration: 2 mg/mL); purchased Cytoskeleton, Inc. (Denver, Colo., USA); host or cells: pig brain (tissue-purified)
Procedure: S-nitroso-N-acetyl-D,L-penicillamine (SNAP), which is a NO donor, was purchased from Cayman Chemical Co. (Ann Arbor, Mich., USA) and used. A tubulin polymerization analysis kit was purchased from Cytoskeleton, Inc. (Denver, Colo., USA) and used. For paclitaxel, a paclitaxel included in the analysis kit was used as paclitaxel. Docetaxel was purchased from Sigma-Aldrich Co. (St. Louis, Mo., USA) and was used as docetaxel.
A fluorescence-based assay of tubulin polymerization reaction was carried out according to the manufacturer's instruction of the kit. That is, purified pig brain-derived tubulin (final concentration: 2 mg/mL) and SNAP (final concentration: 200 or 500 μmol/L) were incubated at room temperature for 15 minutes or longer in the buffer solution included in the kit. Subsequently, paclitaxel (final concentration: 3 μmmol/L) or docetaxel (final concentration: 1 μmol/L), and […] (final concentration: 1 mmol/L) were added to this buffer mixture, and then was incubated for 60 minutes at 37° C. During this incubation, the fluorescence intensity (measurement wavelength: excitation 350 nm/fluorescence 435 nm) was measured every one minute by using a microplate reader (Spectramax, Molecular Devices, LLC, Sunnyvale, Calif., USA). The value of fluorescence intensity was expressed as a percentage relative to the SNAP and taxane-untreated group by using the value obtained 60 minutes after the initiation of the reaction, which corresponded to the equilibrium steady-state phase, and the average value for three experiments was taken as the value.
The results are expressed as the mean value (Mean)±standard error (SEM) of five independent experiments. A comparison between a paclitaxel- or docetaxel-treated group and an untreated group was carried out by an unpaired statistical test (Student's t-test) of the difference between two groups. A comparison between a SNAP-untreated group (control group) and SNAP-treated groups (200 μmol/L and 500 μmol/L) in the presence or absence of the taxane-family drugs was carried out by Dunnett's multiple comparison test. A difference value of less than 5% was considered to be statistically significant. For the data processing, Graphpad Prism version 5.03 was used.

T1 sequence (P02554 whole entry): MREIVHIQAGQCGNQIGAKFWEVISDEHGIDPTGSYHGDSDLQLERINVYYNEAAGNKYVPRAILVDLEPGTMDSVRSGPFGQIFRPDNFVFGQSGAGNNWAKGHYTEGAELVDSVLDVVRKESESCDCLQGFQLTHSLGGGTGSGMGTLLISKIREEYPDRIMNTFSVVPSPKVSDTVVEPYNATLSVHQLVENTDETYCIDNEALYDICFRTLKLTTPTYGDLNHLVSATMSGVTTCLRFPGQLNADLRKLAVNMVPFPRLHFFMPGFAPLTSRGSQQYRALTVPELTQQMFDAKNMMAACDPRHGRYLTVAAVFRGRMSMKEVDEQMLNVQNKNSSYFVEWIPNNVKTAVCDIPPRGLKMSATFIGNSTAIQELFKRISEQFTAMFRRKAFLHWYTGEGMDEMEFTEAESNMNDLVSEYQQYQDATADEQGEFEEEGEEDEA
T1 sequence (P02550 whole entry): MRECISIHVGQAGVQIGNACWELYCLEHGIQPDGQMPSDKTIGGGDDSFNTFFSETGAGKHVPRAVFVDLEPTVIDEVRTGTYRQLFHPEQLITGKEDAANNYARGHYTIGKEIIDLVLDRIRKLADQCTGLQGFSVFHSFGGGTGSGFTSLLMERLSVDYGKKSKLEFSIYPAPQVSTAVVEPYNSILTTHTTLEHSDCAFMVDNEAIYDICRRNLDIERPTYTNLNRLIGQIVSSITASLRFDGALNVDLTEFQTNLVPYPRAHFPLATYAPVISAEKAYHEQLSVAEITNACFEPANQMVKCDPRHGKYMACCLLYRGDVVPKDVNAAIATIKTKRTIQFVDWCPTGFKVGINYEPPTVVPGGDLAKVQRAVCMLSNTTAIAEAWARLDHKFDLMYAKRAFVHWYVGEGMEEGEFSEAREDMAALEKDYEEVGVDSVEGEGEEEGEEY
inducible nitric oxide synthase (inducible NOS, iNOS), sequence (P35228 whole entry): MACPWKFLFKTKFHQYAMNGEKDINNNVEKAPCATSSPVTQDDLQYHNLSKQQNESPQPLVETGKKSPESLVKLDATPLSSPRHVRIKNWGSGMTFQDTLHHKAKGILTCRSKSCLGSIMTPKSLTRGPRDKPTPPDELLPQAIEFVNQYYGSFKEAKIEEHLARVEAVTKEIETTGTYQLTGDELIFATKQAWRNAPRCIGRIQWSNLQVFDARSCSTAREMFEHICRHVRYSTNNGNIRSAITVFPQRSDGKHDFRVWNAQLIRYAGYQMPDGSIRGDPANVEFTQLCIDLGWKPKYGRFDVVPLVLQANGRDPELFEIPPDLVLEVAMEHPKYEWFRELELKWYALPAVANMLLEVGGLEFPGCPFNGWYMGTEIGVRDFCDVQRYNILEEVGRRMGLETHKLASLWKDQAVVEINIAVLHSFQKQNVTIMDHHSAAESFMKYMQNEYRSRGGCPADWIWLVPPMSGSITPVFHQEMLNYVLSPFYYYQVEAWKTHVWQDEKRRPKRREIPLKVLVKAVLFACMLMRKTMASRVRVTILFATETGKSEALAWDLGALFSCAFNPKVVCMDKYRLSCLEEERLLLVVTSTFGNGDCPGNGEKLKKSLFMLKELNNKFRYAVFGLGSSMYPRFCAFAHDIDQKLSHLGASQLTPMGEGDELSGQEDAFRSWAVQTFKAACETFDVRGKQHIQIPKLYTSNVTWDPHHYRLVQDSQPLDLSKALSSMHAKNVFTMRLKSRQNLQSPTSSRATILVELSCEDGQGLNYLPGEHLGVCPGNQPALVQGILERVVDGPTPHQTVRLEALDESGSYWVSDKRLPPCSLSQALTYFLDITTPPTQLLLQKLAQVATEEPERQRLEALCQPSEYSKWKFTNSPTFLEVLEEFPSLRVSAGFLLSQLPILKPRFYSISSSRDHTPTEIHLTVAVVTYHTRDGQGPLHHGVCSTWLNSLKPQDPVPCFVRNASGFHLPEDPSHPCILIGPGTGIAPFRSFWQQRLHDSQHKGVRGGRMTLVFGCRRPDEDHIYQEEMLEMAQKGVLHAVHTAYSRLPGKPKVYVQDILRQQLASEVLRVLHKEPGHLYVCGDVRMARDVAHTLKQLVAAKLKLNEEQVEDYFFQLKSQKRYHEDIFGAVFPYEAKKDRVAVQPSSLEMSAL

| tubulin polymerization (fluorescence intensity) as compared with the taxane-untreated group [5] [%] | Structure (SMILES) | efficacy for monkey renal ischemia/reperfusion injury [1] | efficacy in chronic rejection model for rat aorta transplantation [2] | tumor volume on the last day of experiment ([3]; combined use group paclitaxel 10 mg/kg/day + FK330 100 mg/kg bid) [mm^3] | tumor volume decrease compared with the paclitaxel-only group ([3]; AZ-521, last day, FK330 100 mg/kg bid + paclitaxel, P<0.01) [%] | inducible nitric oxide synthase (iNOS) inhibitory activity [4] | tumor volume on the last day of experiment ([3]; paclitaxel-only group 10 mg/kg/day i.v., two cycles) [mm^3] |
| --- | --- | --- | --- | --- | --- | --- | --- |
| – | O=C(/C=C/c1ccc(Cl)cc1)N[C@@H](Cc1ccccn1)C(=O)NCC(=O)N1CCC(Oc2cc(C(F)(F)F)ncn2)CC1 [FK330, N^2-[(2E)-3-(4-chlorophenyl)-2-propenoyl]-N-[2-oxo-2-(4-{[6-(trifluoromethyl)pyrimidin-4-yl]oxy}piperidin-1-yl)ethyl]-3-pyridin-2-yl-L-alaninamide] | effective | effective | 795.0±223.3 | 75.8 | excellent | – |
| 152.7 | CC(=O)O[C@H]1C(=O)[C@@]2(C)[C@H]([C@H](OC(=O)c3ccccc3)[C@]3(O)C[C@H](OC(=O)[C@H](O)[C@@H](NC(=O)c4ccccc4)c4ccccc4)C(C)=C1C3(C)C)[C@]1(OC(C)=O)CO[C@@H]1C[C@@H]2O [paclitaxel, reference compound] | – | – | – | – | – | 3285.4±359.4 |
